Columns and labels:
[1] = Electrometric titration (pKa); type: physicochemical; details: electrometric titration in 66% dimethylformamide in water
Description: Antibiotic A41030 factor A is a white, crystalline solid.

[2] = test system: Peptostreptococcus intermedius; test: MIC anaerobic bacteria, agar-dilution; type: cell-based; details: Peptostreptococcus intermedius 1264
[3] = test system: Bacteroides vulgatis; test: MIC anaerobic bacteria, agar-dilution; type: cell-based; details: Bacteroides vulgatis 1211
[4] = test system: Fusobacterium symbiosum; test: MIC anaerobic bacteria, agar-dilution; type: cell-based; details: Fusobacterium symbiosum 1470
[5] = test system: Streptococcus pyogenes; test: MIC aerobic bacteria, standard agar-dilution assay; type: cell-based; details: Streptococcus pyogenes C203, 24 hours
[6] = test system: Enterobacter cloacae; test: MIC aerobic bacteria, standard agar-dilution assay; type: cell-based

In the case of A41030 factor B, the “pKa, first titratable group” value [1] is reported as “about 5.6”, the “pKa, second titratable group” value [1] is reported as ~7.5 and the “possibly additional pKa's” value ([1]; stated as possible) is reported as > 10. For the same substance, the MIC [2] was 0.5 µg/mL, the MIC [3] was 32 µg/mL and the MIC [4] was 1.0 µg/mL. The MIC [5] was 0.25 µg/mL, the MIC ([6]; Enterobacter cloacae 265A, 24 hours) was 128 µg/mL and the MIC ([6]; Enterobacter cloacae EB5, 24 hours) was 128 µg/mL.

— US4695545A, “Culture and process for producing A41030 antibiotics” (Eli Lilly and Company, priority 1984, dated 1987)
